In EP0170430A1, “Heterocyclic pharmaceutical compounds, preparation and use” (THE WELLCOME FOUNDATION LIMITED, priority 1984, dated 1986):
Structures can show the parent of a compound that is named as a salt.

Experiments:
Acute toxicity (LD50) = details: in vivo, ip, in the mouse, calculated as the hydrochloride salt
[1] = tested on: tetrabenazine induced sedation; test: Antitetrabenazine test (prevention of tetrabenazine induced sedation); assay type: in vivo; details: Mus musculus; CD1 male mice; compound ip 30 min before tetrabenazine hydrochloride ip; exploratory behavior scored 30 min later; amount required to reverse the tetrabenazine effects in 50 percent of the animals
Procedure: Prevention of tetrabenazine induced sedation was measured using a modification of the method of Vernier, et al., First Hahnemann Symposium on Psychosomatic Medicine, ed. Nodim and Moyer, pub. Lea and Febiger, Philadelphia, 1962.
Mice, three groups of 12 CD1 males each, were injected intraperitoneally (ip) with a solution of compound (IA) or compound (IB) or with a saline solution alone. Thirty minutes later each of the mice was injected (ip, 35 mg/kg) with a solution containing tetrabenazine hydrochloride. Thirty minutes after the injection of tetrabenazine each mouse was examined for its level of exploratory behavior which was scored on a modification of the arbitrary scale defined by Vernier, et. al. The results reported in Table as the ED50 values are the amounts of the test compounds required to reverse the tetrabenazine effects in 50 percent of the animals tested.

C[C@@H]1NC(C)(C)CO[C@@]1(O)c1ccccc1 (relative stereo) [IA, cis-3,5,5-Trimethyl-2-phenyl-2-morpholinol hydrochloride]
LD50 (Acute toxicity (LD50)): ~160 mg/kg | ED50 [1]: 18 mg/kg

C[C@@H]1NC(C)(C)CO[C@@]1(O)c1ccc(F)cc1 (relative stereo) [IB, cis-2-(4-Fluorophenyl)-3,5,5-trimethyl-2-morpholinol hydrochloride]
LD50 (Acute toxicity (LD50)): ~160 mg/kg | ED50 [1]: 14 mg/kg
